In PMC9367601 (Cancers, 2022) one finds inhibition data, which are given here for 23 molecules.

This assay concerns the target T1, Epidermal Growth Factor Receptor (EGFR), extracellular domain (EGFR-ECD) (Homo sapiens, UniProt P00533).
T1 construct: full-length EGFR in DiscoverX PathHunter enzyme-complementation cells, EGF-stimulated
Nature of the assay: cell-based. Details: DiscoverX PathHunter EGFR dimerization/activation assay, chemiluminescence. Here is the method:
The inhibition of the EGFR dimerization assay was conducted using the PathHunter kit following the producer instructions and with cetuximab as a positive control. For IC50 determination, the selected compounds were tested at different concentration (range 0.1–100 µM) and the IC50 values were calculated by the four parameters logistic (4-PL) model. Evaluation was based on means from at least four independent experiments. The discovery of orally available small molecules able to impair the EGFR activation targeting the extracellular domain could be of great interest for cancer treatment. To pursue this goal, a suitable high/medium throughput screening method is required. In this respect, a commercially available kit (PathHunter® from DiscoverX©; San Francisco, CA, USA) for the screening of compounds able to prevent EGFR activation (either dimerization or autophosphorylation) has been developed in recent years. This assay measures the chemiluminescent signal produced as a consequence of ligand-induced dimerization/activation of EGFR [16]. Our interest in kinase inhibitors and the readily availability of such kit prompted us to start a campaign for the discovery of small molecules targeting the extracellular domain of EGFR.

T1 sequence (P00533 25-1210): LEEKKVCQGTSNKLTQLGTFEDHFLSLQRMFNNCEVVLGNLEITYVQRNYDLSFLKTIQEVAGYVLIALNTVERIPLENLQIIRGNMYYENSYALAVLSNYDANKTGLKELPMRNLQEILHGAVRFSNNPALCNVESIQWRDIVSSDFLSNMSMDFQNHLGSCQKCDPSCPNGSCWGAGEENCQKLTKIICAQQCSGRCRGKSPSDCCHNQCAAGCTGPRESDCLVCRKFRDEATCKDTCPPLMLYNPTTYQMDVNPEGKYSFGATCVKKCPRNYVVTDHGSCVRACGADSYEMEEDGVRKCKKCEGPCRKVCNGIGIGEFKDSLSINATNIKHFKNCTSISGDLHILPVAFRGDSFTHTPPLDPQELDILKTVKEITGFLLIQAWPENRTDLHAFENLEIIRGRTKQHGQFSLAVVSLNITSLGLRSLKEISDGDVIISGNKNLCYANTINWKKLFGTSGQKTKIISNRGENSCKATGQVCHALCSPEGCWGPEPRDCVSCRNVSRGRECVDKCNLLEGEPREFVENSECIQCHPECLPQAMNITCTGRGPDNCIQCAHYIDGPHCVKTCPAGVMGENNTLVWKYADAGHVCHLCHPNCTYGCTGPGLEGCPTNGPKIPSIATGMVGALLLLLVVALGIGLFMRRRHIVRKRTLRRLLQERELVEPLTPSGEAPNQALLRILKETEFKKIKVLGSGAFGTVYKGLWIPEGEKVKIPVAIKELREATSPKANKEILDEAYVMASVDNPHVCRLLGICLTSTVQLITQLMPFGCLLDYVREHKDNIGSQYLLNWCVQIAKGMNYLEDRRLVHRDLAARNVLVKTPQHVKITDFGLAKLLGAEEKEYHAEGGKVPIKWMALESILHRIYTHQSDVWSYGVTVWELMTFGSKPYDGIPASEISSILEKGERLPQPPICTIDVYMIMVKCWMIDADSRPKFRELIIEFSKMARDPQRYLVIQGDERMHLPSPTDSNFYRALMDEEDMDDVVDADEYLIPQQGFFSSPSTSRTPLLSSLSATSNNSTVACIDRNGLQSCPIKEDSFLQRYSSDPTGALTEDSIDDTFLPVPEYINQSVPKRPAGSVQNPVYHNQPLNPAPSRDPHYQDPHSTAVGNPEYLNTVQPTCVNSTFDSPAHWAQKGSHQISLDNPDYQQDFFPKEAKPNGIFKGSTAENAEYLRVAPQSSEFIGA

Consider `Nc1ccc2cc3cc(N)ccc3cc2c1` [DSF001], for which the inhibition (as a rule, how much of the control response was suppressed) at 10 µM came to 0% and testing at 50 µM gave an inhibition of 0%.
On to `CC(=O)c1cccc2cc3c(C(C)=O)cccc3cc12` [DSF002], for which the inhibition at 10 µM was 0% and at 50 µM the inhibition was 0%.
Regarding `ClCc1c2ccccc2c(CCl)c2ccccc12` [DSF003], the inhibition at 10 µM came out at 35 ± 5% and 50 µM produced 50 ± 1% inhibition.
With `N#CCc1c2ccccc2c(CC#N)c2ccccc12` [DSF004], 10 µM produced 0% inhibition and testing at 50 µM gave an inhibition of 1 ± 1%.
The like results for `O=C(O)c1cccc2cc3c(C(=O)O)cccc3cc12` [DSF005] were, in that order, 0% and 1 ± 4%.
The molecule `c1ccc2c(CN3CCOCC3)c3ccccc3c(CN3CCOCC3)c2c1` [DSF006] gave an inhibition at 10 µM of 19 ± 1% and an inhibition at 50 µM of 27 ± 4%.
The like results for `c1ccc2c(CN3CCCCC3)c3ccccc3c(CN3CCCCC3)c2c1` [DSF007] were, in that order, 16 ± 4% and 16 ± 4%.
For `CC(=O)Nc1ccc(O)c2c1C(=O)c1ccccc1C2=O` [DSF008] the same measures were 0% and 14 ± 2%.
In turn, `CS(=O)(=O)Nc1ccc(NC(=O)c2ccc3c(c2)C(=O)c2c(NCCOCCN)ccc(NCCOCCN)c2C3=O)cc1` [DSF009] displayed an inhibition at 10 µM of 8 ± 1% and an inhibition at 50 µM of 48 ± 1%.
In turn, `CS(=O)(=O)Nc1ccc(NC(=O)c2ccc3c(c2)C(=O)c2c(NCCN4CCNCC4)ccc(NCCN4CCNCC4)c2C3=O)cc1` [DSF010] came in with an inhibition at 10 µM of 28 ± 3% and an inhibition at 50 µM of 34 ± 2%.
The molecule `O=C(O)COCC(=O)OCc1cc(O)c2c(c1)C(=O)c1cccc(O)c1C2=O` [DSF011] registered an inhibition at 10 µM of 9 ± 5% and an inhibition at 50 µM of 39 ± 1%.
The like results for `CC(NC(=O)C(NC(=O)OCc1ccccc1)C(C)C)C(=O)OCCCCCNc1ccc(NCCCCCOC(=O)C(C)NC(=O)C(NC(=O)OCc2ccccc2)C(C)C)c2c1C(=O)c1ccccc1C2=O` (stereo not shown) [DSF012] were, in that order, 0% and 20 ± 5%.
The like results for `CC(NC(=O)C(NC(=O)OCc1ccccc1)C(C)C)C(=O)OCCCCCNc1ccc(NCCCCCO)c2c1C(=O)c1ccccc1C2=O` (stereo not shown) [DSF013] were, in that order, 0% and 0%.
The like results for `C=CCOc1cccc2c1C(=O)c1cccc(OCC=C)c1C2=O` [DSF014] were, in that order, 0% and 0%.
Regarding `CN(C)CCNc1ccc(F)c2c1C(=O)c1ccccc1C2=O` [DSF015], testing at 10 µM gave an inhibition of 39 ± 4% and testing at 50 µM gave an inhibition of 48 ± 1%.
For `O=C1c2ccccc2C(=O)c2c(NCCNCCO)ccc(F)c21` [DSF016] the same measures were 33 ± 5% and 25 ± 3%.
The like results for `O=C(CN1CCCCC1)Nc1ccc(NC(=O)CN2CCCCC2)c2c1C(=O)c1ccccc1C2=O` [DSF017] were, in that order, 9 ± 2% and 14 ± 1%.
In turn, `O=C(CN1CCOCC1)Nc1ccc(NC(=O)CN2CCOCC2)c2c1C(=O)c1ccccc1C2=O` [DSF018] yielded an inhibition at 10 µM of 16 ± 3% and an inhibition at 50 µM of 38 ± 5%.
Regarding `O=C(CN1CCCCC1)Nc1ccc(NC(=O)CN2CCCCC2)c2c1C(=O)c1c(O)ccc(O)c1C2=O` [DSF019], the inhibition at 10 µM was 35 ± 5% and at 50 µM the inhibition was 33 ± 1%.
The like results for `O=C(CN1CCOCC1)Nc1ccc(NC(=O)CN2CCOCC2)c2c1C(=O)c1c(O)ccc(O)c1C2=O` [DSF020] were, in that order, 33 ± 5% and 29 ± 1%.
`O=C(CCN1CCOCC1)Nc1ccc(NC(=O)CCN2CCOCC2)c2c1C(=O)c1ccccc1C2=O` [DSF021] registered an inhibition at 10 µM of 16 ± 4% and an inhibition at 50 µM of 30 ± 5%.
With `Nc1cccc(-c2cc(-c3ccccc3)ncn2)c1` [DSF022], the inhibition at 10 µM turned out to be 0% and the inhibition at 50 µM worked out at 4 ± 4%.
The like results for `Nc1cccc(-c2cc(-c3ccc(C(=O)O)cc3)ncn2)c1` [DSF023] were, in that order, 22 ± 1% and 8 ± 2%.
